Measured values taken from patent US20200253506A1, “TREATMENT OF A DISEASE OF THE GASTROINTESTINAL TRACT WITH AN INTEGRIN INHIBITOR” (Progenity, Inc., priority 2016, published 2020).

Assay: Tacrolimus tissue, plasma and GI content pharmacokinetics, oral vs intra-cecal ingestible device delivery
Type: in vivo
Conditions: swine; intra-cecal compared to oral; 12 hours post-dose; FIG. 76
Description: No further randomization procedure was employed.
Animals in Group 1 received an ingestible device containing 0.8 mL of vehicle solution (80% alcohol, 20% HCO-60). Animals in Group 2 received orally […] liquid formulation of tacrolimus at 4 mg/0.8 mL per animal (Prograf: 5 mg/mL). Animals in Group 3 received intra-cecally an ingestible device containing tacrolimus at 1 mg in 0.8 mL per ingestible device. Animals in Group 4 received intra-cecally an ingestible device containing tacrolimus at 2 mg in 0.8 mL per ingestible device. Animals in Group 5 received intra-cecally an ingestible device containing tacrolimus at 4 mg in 0.8 mL per ingestible device. […]
Approximately 200-400 mg of rectal content were collected, if available, with a fecal swab (Copan Diagnostics Nylon Flocked Dry Swabs, 502CS01). The fecal swab was pre-weighed and weighed after collection in the collection tube (Sterile Tube and Cap No Media, PFPM913S), and the sample weight was recorded. […]
For tissue necropsy, small intestine fluid and cecal fluid were collected separately from all the animals into two separate square plastic bottles, and stored at −20° C. The length and diameter of the cecum and the colon was measured from one animal in each group and recorded for reference. […] All samples were weighed, and the tissue sample weights were recorded. […]

C=CC[C@@H]1/C=C(\C)C[C@H](C)C[C@H](OC)[C@H]2O[C@@](O)(C(=O)C(=O)N3CCCC[C@H]3C(=O)O[C@H](/C(C)=C/[C@@H]3CC[C@@H](O)[C@H](OC)C3)[C@H](C)[C@@H](O)CC1=O)[C@H](C)C[C@@H]2OC [tacrolimus]
mean concentration of tacrolimus in the cecum tissue and the proximate colon tissue: higher
